Results published in patent publication US8871753B2, “Macrocyclic compounds and their use as kinase inhibitors” (Incyte Corporation, priority 2008, dated 2014).
Counter-ions that a name gives are not always drawn.

Columns and labels:
Assay type in all cases: biochemical
[1] = target: T1, human JAK1 (a.a. 837-1142) (Homo sapiens, UniProt P23458); assay: In vitro JAK kinase assay (HTRF, phosphorylation of a biotinylated peptide), JAK1; conditions: Table B1; read-out: JAK1 IC50
T1 construct: human JAK1 (a.a. 837-1142); His tag (N); made in house; host or cells: insect cells (baculovirus)
T1 sequence (P23458 849-1154): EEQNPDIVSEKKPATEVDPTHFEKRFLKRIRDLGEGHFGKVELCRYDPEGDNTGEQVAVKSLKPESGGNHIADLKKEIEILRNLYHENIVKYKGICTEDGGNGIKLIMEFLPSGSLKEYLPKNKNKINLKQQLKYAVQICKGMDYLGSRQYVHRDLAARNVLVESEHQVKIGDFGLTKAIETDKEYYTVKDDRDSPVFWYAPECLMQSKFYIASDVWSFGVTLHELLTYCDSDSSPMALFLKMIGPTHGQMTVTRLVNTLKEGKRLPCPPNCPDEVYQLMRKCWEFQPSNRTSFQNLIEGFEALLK
In short: (§1)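 Kinase reactions ran at room temperature for 1 h with ATP matched per isoform (JAK1 90 μM, JAK2 30 μM, JAK3 3 μM). After an EDTA stop, the phosphorylated biotin-peptide was read by HTRF using Eu-Py20 and SA-APC after 40 min binding.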

[2] = target: T2, human JAK2 (a.a. 828-1132) (Homo sapiens, UniProt O60674); assay: In vitro JAK kinase assay (HTRF, phosphorylation of a biotinylated peptide), JAK2; conditions: Table B1
T2 construct: JAK2 (a.a. 828-1132); His tag (N); made in house; host or cells: insect cells (baculovirus)
T2 sequence (O60674 828-1132): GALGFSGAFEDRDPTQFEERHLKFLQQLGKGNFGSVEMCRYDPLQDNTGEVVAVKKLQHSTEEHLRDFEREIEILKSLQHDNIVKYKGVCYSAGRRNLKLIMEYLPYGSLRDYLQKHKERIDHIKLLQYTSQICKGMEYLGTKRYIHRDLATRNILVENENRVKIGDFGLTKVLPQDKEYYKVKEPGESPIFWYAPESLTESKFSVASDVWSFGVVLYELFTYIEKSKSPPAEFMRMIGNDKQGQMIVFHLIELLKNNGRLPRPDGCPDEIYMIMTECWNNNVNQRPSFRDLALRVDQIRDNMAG
In short: as §1

[3] = target: T3, human JAK3 (a.a. 781-1124) (Homo sapiens, UniProt P52333); assay: In vitro JAK kinase assay (HTRF, phosphorylation of a biotinylated peptide), JAK3; conditions: Table B1
T3 construct: JAK3 (a.a. 781-1124); His tag (N); made in house; host or cells: insect cells (baculovirus)
T3 sequence (P52333 781-1124): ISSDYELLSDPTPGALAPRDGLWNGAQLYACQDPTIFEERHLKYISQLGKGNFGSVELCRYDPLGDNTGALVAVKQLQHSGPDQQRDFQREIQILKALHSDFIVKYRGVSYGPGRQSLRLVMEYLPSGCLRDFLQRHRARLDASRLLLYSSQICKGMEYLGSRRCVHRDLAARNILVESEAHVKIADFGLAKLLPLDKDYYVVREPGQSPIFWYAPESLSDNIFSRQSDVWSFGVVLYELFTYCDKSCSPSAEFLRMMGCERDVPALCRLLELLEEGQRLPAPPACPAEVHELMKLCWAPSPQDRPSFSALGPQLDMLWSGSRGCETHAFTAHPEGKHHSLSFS
In short: as §1

TYK2 = TYK2 (Homo sapiens, UniProt P29597); assay: TYK2 kinase inhibition (Table A1); conditions: Table B1
Chain of TYK2 (P29597 whole entry): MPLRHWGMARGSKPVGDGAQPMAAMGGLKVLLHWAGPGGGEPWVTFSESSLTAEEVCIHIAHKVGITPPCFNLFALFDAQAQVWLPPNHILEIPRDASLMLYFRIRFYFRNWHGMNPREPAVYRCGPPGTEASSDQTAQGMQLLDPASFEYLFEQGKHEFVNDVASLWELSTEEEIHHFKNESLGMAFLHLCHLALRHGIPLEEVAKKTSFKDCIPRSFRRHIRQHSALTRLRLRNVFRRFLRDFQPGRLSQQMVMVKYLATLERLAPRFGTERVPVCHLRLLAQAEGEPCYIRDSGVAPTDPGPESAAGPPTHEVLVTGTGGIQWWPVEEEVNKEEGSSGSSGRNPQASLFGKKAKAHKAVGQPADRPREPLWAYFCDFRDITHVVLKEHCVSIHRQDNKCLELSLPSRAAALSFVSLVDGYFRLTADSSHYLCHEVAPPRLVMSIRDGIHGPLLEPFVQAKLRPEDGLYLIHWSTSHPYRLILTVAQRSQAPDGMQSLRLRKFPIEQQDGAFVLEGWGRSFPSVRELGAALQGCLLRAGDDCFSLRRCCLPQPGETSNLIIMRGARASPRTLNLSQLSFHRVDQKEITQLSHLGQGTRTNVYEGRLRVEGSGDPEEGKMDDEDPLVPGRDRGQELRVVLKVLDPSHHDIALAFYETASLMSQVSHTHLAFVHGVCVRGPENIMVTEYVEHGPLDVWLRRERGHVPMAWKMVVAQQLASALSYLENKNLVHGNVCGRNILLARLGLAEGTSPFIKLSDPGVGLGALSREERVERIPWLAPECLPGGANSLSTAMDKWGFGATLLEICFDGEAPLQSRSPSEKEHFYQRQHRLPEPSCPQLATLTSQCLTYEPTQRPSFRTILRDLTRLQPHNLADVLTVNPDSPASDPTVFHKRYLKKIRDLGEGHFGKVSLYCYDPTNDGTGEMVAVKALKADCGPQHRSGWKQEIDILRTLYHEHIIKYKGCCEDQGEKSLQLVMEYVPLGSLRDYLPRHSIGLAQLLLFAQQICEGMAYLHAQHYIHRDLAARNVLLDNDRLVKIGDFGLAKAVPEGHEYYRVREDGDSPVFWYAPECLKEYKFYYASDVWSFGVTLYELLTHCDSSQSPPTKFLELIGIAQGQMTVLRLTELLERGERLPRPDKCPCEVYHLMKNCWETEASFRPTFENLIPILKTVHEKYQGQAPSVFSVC

[4] = target: T4, Recombinant Human Anaplastic Lymphoma Kinase (Homo sapiens, UniProt Q9UM73); assay: ALK HTRF kinase assay; conditions: Table B1; cells without percent sign
T4 construct: purchased Invitrogen, Carlsbad, Calif
T4 sequence (Q9UM73 19-1620): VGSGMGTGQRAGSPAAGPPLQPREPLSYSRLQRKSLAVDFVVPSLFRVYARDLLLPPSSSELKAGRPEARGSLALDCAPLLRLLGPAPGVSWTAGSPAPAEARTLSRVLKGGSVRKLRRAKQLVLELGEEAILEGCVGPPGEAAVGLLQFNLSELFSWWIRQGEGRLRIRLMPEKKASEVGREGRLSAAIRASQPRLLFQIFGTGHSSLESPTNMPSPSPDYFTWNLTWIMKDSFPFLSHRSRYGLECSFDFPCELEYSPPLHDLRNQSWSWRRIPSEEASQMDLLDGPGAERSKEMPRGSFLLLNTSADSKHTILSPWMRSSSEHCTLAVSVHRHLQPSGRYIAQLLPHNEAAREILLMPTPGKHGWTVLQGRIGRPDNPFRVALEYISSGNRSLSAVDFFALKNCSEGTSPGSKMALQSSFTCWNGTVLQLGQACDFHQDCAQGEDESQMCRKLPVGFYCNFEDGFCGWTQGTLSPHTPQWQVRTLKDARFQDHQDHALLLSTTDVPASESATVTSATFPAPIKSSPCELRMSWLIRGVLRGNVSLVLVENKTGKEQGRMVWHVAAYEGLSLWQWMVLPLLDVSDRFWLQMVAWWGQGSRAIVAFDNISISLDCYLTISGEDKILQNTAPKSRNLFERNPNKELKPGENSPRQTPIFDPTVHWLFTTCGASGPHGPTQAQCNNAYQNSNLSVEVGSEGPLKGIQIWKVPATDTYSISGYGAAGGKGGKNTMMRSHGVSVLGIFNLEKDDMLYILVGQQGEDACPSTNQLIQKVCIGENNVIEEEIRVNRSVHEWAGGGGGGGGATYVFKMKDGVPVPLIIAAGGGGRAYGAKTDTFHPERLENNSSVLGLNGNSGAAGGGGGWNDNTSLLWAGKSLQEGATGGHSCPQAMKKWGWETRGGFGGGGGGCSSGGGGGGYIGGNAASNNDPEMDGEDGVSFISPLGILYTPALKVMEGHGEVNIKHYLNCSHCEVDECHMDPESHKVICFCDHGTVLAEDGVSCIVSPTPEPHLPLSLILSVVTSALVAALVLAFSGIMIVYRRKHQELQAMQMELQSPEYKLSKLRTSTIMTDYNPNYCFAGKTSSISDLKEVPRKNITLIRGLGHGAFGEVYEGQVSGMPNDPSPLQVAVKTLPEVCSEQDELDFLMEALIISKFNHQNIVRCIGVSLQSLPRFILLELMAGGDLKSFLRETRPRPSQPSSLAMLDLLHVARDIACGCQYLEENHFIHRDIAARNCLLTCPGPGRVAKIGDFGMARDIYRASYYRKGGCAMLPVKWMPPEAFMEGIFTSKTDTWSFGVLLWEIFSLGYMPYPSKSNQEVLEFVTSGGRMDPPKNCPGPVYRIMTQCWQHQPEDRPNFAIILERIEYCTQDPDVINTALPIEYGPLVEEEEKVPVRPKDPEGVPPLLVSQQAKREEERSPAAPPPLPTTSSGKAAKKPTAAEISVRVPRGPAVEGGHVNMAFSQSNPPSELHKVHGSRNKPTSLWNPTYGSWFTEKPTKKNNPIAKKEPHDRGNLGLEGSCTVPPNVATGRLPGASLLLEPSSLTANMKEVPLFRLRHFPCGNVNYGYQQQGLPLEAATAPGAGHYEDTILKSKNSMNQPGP
In short: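 Recombinant human ALK with biotinylated peptide substrate; phosphorylation detected by HTRF using Eu-labelled anti-phosphotyrosine antibody and streptavidin-allophycocyanin. IC50 from a sigmoidal fit with Hill slope.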

SMILES: Clc1cnc2nc1Nc1cc(cc(CN3CCNCC3)c1)CCc1cccc(c1)N2 [Example B191, 6-Chloro-11-(piperazin-1-ylmethyl)-2,4,8,22-tetraazatetracyclo[14.3.1.1(3,7).1(9,13)]docosa-1(20),3(22),4,6,9(21),10,12,16,18-nonaene dihydrochloride]
- IC50 [1]: 93 nM
- IC50 [2]: 27 nM
- IC50 [3]: 205 nM
- IC50 (TYK2): 378 nM
- IC50 [4]: 1530 nM

SMILES: Fc1ccc(CN2CCN(Cc3cc4cc(c3)Nc3nc(ncc3Cl)Nc3cccc(c3)CC4)CC2)cc1 [Example B192, 6-Chloro-11-{[4-(4-fluorobenzyl)piperazin-1-yl]methyl}-2,4,8,22-tetraazatetracyclo[14.3.1.1(3,7).1(9,13)]docosa-1(20),3(22),4,6,9(21),10,12,16,18-nonaene tris(trifluoroacetate)]
- IC50 [1]: 21 nM
- IC50 [2]: 23 nM
- IC50 [3]: 308 nM
- IC50 (TYK2): 341 nM
- IC50 [4]: > 1000 nM

SMILES: O=[N+]([O-])c1ccc(CN2CCN(Cc3cc4cc(c3)Nc3nc(ncc3Cl)Nc3cccc(c3)CC4)CC2)cc1 [Example B194, 6-Chloro-11-{[4-(4-nitrobenzyl)piperazin-1-yl]methyl}-2,4,8,22-tetraazatetracyclo[14.3.1.1(3,7).1(9,13)]docosa-1(20),3(22),4,6,9(21),10,12,16,18-nonaene tris(trifluoroacetate)]
- IC50 [1]: 36 nM
- IC50 [2]: 12 nM
- IC50 [3]: 108 nM
- IC50 (TYK2): 251 nM
- IC50 [4]: > 1000 nM

SMILES: O=S(=O)(c1ccc(Cl)cc1)c1ccc(CN2CCN(Cc3cc4cc(c3)Nc3nc(ncc3Cl)Nc3cccc(c3)CC4)CC2)cc1 [Example B195, 6-Chloro-11-[(4-{4-[(4-chlorophenyl)sulfonyl]benzyl}piperazin-1-yl)methyl]-2,4,8,22-tetraazatetracyclo[14.3.1.1(3,7).1(9,13)]docosa-1(20),3(22),4,6,9(21),10,12,16,18-nonaene tris(trifluoroacetate)]
- IC50 [1]: > 1000 nM
- IC50 [2]: 91 nM
- IC50 [3]: > 1000 nM
- IC50 (TYK2): > 1000 nM
- IC50 [4]: > 10000 nM

SMILES: Clc1cnc2nc1Nc1cc(cc(CN3CCN(Cc4cc(Br)cs4)CC3)c1)CCc1cccc(c1)N2 [Example B196, 11-({4-[(4-Bromo-2-thienyl)methyl]piperazin-1-yl}methyl)-6-chloro-2,4,8,22-tetraazatetracyclo[14.3.1.1(3,7).1(9,13)]docosa-1(20),3(22),4,6,9(21),10,12,16,18-nonaene tris(trifluoroacetate)]
- IC50 [1]: 3.5 nM
- IC50 [2]: 0.88 nM
- IC50 [3]: 48 nM
- IC50 (TYK2): 111 nM
- IC50 [4]: > 10000 nM

SMILES: COc1ccc(CN2CCN(Cc3cc4cc(c3)Nc3nc(ncc3Cl)Nc3cccc(c3)CC4)CC2)cc1 [Example B197, 6-Chloro-11-{[4-(4-methoxybenzyl)piperazin-1-yl]methyl}-2,4,8,22-tetraazatetracyclo[14.3.1.1(3,7).1(9,13)]docosa-1(20),3(22),4,6,9(21),10,12,16,18-nonaene tris(trifluoroacetate)]
- IC50 [1]: 18 nM
- IC50 [2]: 2.2 nM
- IC50 [3]: 138 nM
- IC50 (TYK2): 188 nM
- IC50 [4]: > 1000 nM

SMILES: COc1cccc(CN2CCN(Cc3cc4cc(c3)Nc3nc(ncc3Cl)Nc3cccc(c3)CC4)CC2)c1 [Example B198, 6-Chloro-11-{[4-(3-methoxybenzyl)piperazin-1-yl]methyl}-2,4,8,22-tetraazatetracyclo[14.3.1.1(3,7).1(9,13)]docosa-1(20),3(22),4,6,9(21),10,12,16,18-nonaene tris(trifluoroacetate)]
- IC50 [1]: 39 nM
- IC50 [2]: 10 nM
- IC50 [3]: 161 nM
- IC50 (TYK2): 289 nM
- IC50 [4]: > 10000 nM

SMILES: Clc1ccc(CN2CCN(Cc3cc4cc(c3)Nc3nc(ncc3Cl)Nc3cccc(c3)CC4)CC2)cc1 [Example B199, 6-Chloro-11-{[4-(4-chlorobenzyl)piperazin-1-yl]methyl}-2,4,8,22-tetraazatetracyclo[14.3.1.1(3,7).1(9,13)]docosa-1(20),3(22),4,6,9(21),10,12,16,18-nonaene tris(trifluoroacetate)]
- IC50 [1]: 4.9 nM
- IC50 [2]: 2.7 nM
- IC50 [3]: 64 nM
- IC50 (TYK2): 154 nM
- IC50 [4]: > 1000 nM

SMILES: O=C(Nc1ccccc1)c1ccc2cc1CCc1cccc(c1)Nc1ncc(Cl)c(n1)N2 [Example B200, 6-Chloro-N-phenyl-2,4,8,22-tetraazatetracyclo[14.3.1.1(3,7).1(9,13)]docosa-1(20),3(22),4,6,9(21),10,12,16,18-nonaene-12-carboxamide trifluoroacetate]
- IC50 [1]: 82 nM
- IC50 [2]: 17 nM
- IC50 [3]: 118 nM
- IC50 (TYK2): 85 nM
- IC50 [4]: 4400 nM

SMILES: O=C(Nc1cc2cc(c1)Nc1nc(ncc1Cl)Nc1cccc(c1)CC2)c1ccccn1 [Example B201, N-[6-Chloro-2,4,8,22-tetraazatetracyclo[14.3.1.1(3,7).1(9,13)]docosa-1(20),3(22),4,6,9(21),10,12,16,18-nonaen-11-yl]pyridine-2-carboxamide trifluoroacetate]
- IC50 [1]: 119 nM
- IC50 [2]: 410 nM
- IC50 [3]: 454 nM
- IC50 (TYK2): > 1000 nM
- IC50 [4]: > 10000 nM

SMILES: O=C(Nc1ccccc1)Nc1cc2cc(c1)Nc1nc(ncc1Cl)Nc1cccc(c1)CC2 [Example B202, N-[6-Chloro-2,4,8,22-tetraazatetracyclo[14.3.1.1(3,7).1(9,13)]docosa-1(20),3(22),4,6,9(21),10,12,16,18-nonaen-11-yl]-N′-phenylurea trifluoroacetate]
- IC50 [1]: 36 nM
- IC50 [2]: 56 nM
- IC50 [3]: 101 nM
- IC50 (TYK2): 205 nM
- IC50 [4]: 3600 nM

SMILES: O=S(=O)(Nc1cc2cc(c1)Nc1nc(ncc1Cl)Nc1cccc(c1)CC2)c1ccccc1 [Example B203, N-[6-Chloro-2,4,8,22-tetraazatetracyclo[14.3.1.1(3,7).1(9,13)]docosa-1(20),3(22),4,6,9(21),10,12,16,18-nonaen-11-yl]benzenesulfonamide trifluoroacetate]
- IC50 [1]: 44 nM
- IC50 [2]: 19 nM
- IC50 [3]: 102 nM
- IC50 (TYK2): 34 nM
- IC50 [4]: > 10000 nM

SMILES: O=C(Nc1cc2cc(c1)Nc1nc(ncc1Cl)Nc1cccc(c1)CC2)c1nc2ccccc2s1 [Example B204, N-[6-Chloro-2,4,8,22-tetraazatetracyclo[14.3.1.1(3,7).1(9,13)]docosa-1(20),3(22),4,6,9(21),10,12,16,18-nonaen-11-yl]-1,3-benzothiazole-2-carboxamide trifluoroacetate]
- IC50 [1]: > 1000 nM
- IC50 [2]: 500 nM
- IC50 [3]: > 1000 nM
- IC50 (TYK2): > 1000 nM
- IC50 [4]: > 10000 nM

SMILES: Cc1cc(C(=O)Nc2cc3cc(c2)Nc2nc(ncc2Cl)Nc2cccc(c2)CC3)no1 [Example B205, N-[6-Chloro-2,4,8,22-tetraazatetracyclo[14.3.1.1(3,7).1(9,13)]docosa-1(20),3(22),4,6,9(21),10,12,16,18-nonaen-11-yl]-5-methylisoxazole-3-carboxamide trifluoroacetate]
- IC50 [1]: 188 nM
- IC50 [2]: 146 nM
- IC50 [3]: 509 nM
- IC50 (TYK2): > 1000 nM
- IC50 [4]: > 10000 nM

SMILES: O=C(Nc1cc2cc(c1)Nc1nc(ncc1Cl)Nc1cccc(c1)CC2)c1ccno1 [Example B206, N-[6-Chloro-2,4,8,22-tetraazatetracyclo[14.3.1.1(3,7).1(9,13)]docosa-1(20),3(22),4,6,9(21),10,12,16,18-nonaen-11-yl]isoxazole-5-carboxamide trifluoroacetate]
- IC50 [1]: 16 nM
- IC50 [2]: 15 nM
- IC50 [3]: 41 nM
- IC50 (TYK2): 46 nM
- IC50 [4]: > 10000 nM
